3 compounds from PMC4532832, “GABA signalling modulates plant growth by directly regulating the activity of plant-specific anion transporters” (Nature Communications, 2015) can be followed below.

Changes are numbered by the printed parent chain. Read-outs that look alike come from different tables or passages of the source.

Assay type in all cases: cell-based
Assay [1] has as its target T1, VvALMT9 (Vitis vinifera, UniProt F6GTK1).
T1 construct: gene VIT_17s0000g03850; full-length, untagged as told; cRNA from pGEMHE-DEST in Xenopus laevis oocytes
T1 sequence (F6GTK1 1-588): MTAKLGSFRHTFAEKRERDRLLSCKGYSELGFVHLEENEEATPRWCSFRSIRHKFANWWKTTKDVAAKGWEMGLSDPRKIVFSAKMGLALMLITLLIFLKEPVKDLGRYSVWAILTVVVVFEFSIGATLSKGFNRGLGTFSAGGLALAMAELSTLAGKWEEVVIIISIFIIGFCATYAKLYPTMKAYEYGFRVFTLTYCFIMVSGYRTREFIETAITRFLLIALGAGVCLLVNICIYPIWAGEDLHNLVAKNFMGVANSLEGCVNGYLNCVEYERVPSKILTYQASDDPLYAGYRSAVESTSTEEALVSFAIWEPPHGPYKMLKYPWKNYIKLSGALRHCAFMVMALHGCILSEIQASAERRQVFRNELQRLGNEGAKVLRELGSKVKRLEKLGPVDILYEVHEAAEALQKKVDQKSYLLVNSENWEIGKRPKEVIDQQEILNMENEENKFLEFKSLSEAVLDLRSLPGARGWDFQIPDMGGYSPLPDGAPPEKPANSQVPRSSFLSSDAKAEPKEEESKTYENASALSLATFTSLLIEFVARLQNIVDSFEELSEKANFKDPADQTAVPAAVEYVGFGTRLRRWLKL
The experiment in a line: two-electrode voltage clamp, X. laevis oocytes. The settings on record: read-out: half-maximal effective concentration. For orientation: Two-electrode voltage clamp holds a large cell at a set potential and records current.

Assay [2] addresses T2, TaALMT1 (Triticum aestivum, UniProt Q76LB1, F213C/F215C).
T2 construct: gene ALMT1; full-length, untagged as told; cRNA from pGEMHE-DEST in Xenopus laevis oocytes; BY2 tobacco line for flux
T2 sequence (Q76LB1 1-459 F213C/F215C): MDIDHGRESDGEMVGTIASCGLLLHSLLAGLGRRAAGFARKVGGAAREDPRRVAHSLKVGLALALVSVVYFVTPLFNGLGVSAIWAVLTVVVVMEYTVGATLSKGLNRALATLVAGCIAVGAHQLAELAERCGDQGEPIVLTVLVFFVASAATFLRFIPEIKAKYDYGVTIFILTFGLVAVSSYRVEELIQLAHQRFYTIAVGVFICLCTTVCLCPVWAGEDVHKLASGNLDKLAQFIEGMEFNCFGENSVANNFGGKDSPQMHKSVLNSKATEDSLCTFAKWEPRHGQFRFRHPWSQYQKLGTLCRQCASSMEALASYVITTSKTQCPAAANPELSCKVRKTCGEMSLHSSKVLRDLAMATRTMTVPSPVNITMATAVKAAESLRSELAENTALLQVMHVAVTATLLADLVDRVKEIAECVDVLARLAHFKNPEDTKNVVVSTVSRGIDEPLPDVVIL
Put plainly: two-electrode voltage clamp, X. laevis oocytes. The settings on record: read-out: half-maximal effective concentration.

Assay [3] has as its target T3, TaALMT1 (Triticum aestivum, UniProt Q76LB1).
T3 construct: gene ALMT1; full-length, untagged as told; cRNA from pGEMHE-DEST in Xenopus laevis oocytes; BY2 tobacco line for flux
T3 sequence (Q76LB1 1-459): T2 sequence (Q76LB1 1-459 F213C/F215C) with C213F, C215F
The experiment in a line: two-electrode voltage clamp, X. laevis oocytes.

For assay [4], the target named is T4, VvALMT9 (Vitis vinifera, UniProt F6GTK1, Y237C).
T4 construct: gene VIT_17s0000g03850; full-length, untagged as told; cRNA from pGEMHE-DEST in Xenopus laevis oocytes
Put plainly: two-electrode voltage clamp, X. laevis oocytes. The settings on record: read-out: half-maximal effective concentration.

The target of assay [5] is T5, TaALMT1 (Triticum aestivum, UniProt Q76LB1, F215C).
T5 construct: gene ALMT1; full-length, untagged as told; cRNA from pGEMHE-DEST in Xenopus laevis oocytes; BY2 tobacco line for flux
T5 sequence (Q76LB1 1-459 F215C): T2 sequence (Q76LB1 1-459 F213C/F215C) with C213F
The experiment in a line: two-electrode voltage clamp, X. laevis oocytes. The settings on record: 10 mM malate-activated current, 100 μM GABA.

For assay [6], the target named is T3, TaALMT1. The experiment in a line: two-electrode voltage clamp in oocytes; malate efflux from TaALMT1-expressing BY2 cells. The settings on record: 100 μM bicuculline against muscimol or GABA; competitive antagonist.

T4 sequence (F6GTK1 entry or part of it Y237C): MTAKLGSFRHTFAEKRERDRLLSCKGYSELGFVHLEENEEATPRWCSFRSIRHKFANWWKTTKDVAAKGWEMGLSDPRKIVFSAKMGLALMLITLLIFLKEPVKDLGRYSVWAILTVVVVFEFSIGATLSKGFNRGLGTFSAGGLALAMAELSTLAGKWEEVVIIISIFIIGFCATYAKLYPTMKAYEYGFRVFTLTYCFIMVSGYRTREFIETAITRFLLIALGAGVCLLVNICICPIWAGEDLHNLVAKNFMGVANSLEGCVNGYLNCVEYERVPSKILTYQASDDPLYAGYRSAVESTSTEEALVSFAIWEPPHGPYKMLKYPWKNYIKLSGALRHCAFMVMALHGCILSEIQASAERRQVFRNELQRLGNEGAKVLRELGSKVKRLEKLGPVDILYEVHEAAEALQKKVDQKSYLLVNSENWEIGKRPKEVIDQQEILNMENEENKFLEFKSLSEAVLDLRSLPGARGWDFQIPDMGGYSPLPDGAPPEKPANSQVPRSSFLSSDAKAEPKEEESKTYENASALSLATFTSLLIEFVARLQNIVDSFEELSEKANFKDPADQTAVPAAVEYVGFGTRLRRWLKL

For the compound `NCCCC(=O)O` [GABA], the EC50 on VvALMT9 [1] is 5 µM; at TaALMT1 [2], above 1000 µM; at TaALMT1 [3] (read-out: half-maximal effective concentration), 3.2 µM; on VvALMT9 [4], 697 µM. Also, at TaALMT1 [5], the “inhibition at 100 μM” value is “whereas inward current through TaALMT1^F215C was reduced by GABA”.
For the compound `CN1CCc2cc3c(cc2[C@H]1[C@@H]1OC(=O)c2c1ccc1c2OCO1)OCO3` [bicuculline], on TaALMT1 [6], the “two-electrode voltage clamp in oocytes; malate efflux from TaALMT1-expressing BY” value was “bicuculline appears to act as a competitive antagonist to GABA action for TaALMT1”.
`NCc1cc(=O)[nH]o1` [muscimol] came in with an EC50 on TaALMT1 [3] of 5.5 µM.
